Data on one compound can be found in patent EP2812315B1, “PYRROLIC DERIVATIVES, PROCESSES FOR PREPARING THE SAME AND THEIR USES AS A DRUG” (Universite Joseph Fourier, priority 2012, dated 2013).

Type in all cases: cell-based
Assay [1] relates to HCT116 (human colon tumor). In words: In vitro cytotoxicity. To be noted: HCT-116, 10^-5 M in DMSO, triplicate, read-out: % of cellular growth inhibition. The procedure:
(§1) In vitro cytotoxicity was assayed on three cell lines - KB (human mouth carcinoma), MCR5 (human lung fibroblast) and HCT116 (human colon tumor). Results are presented in table III as % of cellular growth inhibition in presence of 10^-5 M and 10^-6 M of the tested bis-pyrrolic derivatives in DMSO (triplicate).

For assay [2], the system named is KB (human mouth carcinoma). Kind of assay: In vitro cytotoxicity. Particulars: 10^-5 M in DMSO, triplicate, read-out: % of cellular growth inhibition. The procedure:
as §1

Assay [3] relates to MRC5. In words: In vitro cytotoxicity. To be noted: MRC5 (human lung fibroblast); 10^-5 M in DMSO; triplicate; read-out: % of cellular growth inhibition. As to the method:
as §1

Assay [4] has as its system Staphylococcus epidermidis (ATCC 12228). In words: Other MIC determination, microdilution method (CLSI M07-A9) with modifications. To be noted: ATCC12228, 10^6 CFU/ml, 18h at 37 °C. The procedure:
(§2) The microdilution method recommended by the Clinical and Laboratory Standard Institute [M07-A9, Vol.32, N°2] was used with the following modifications.
(§3) Bacterial inocula were prepared in Mueller Hinton broth (MH2, BioMérieux, Marcy L'Etoile, France). They were dispensed in 96 well microtiter plates (10^6 CFU/ml of final inoculum, 192 µL per well).
(§4) To avoid cross-contaminations in microtiter plates, one row was left blank between each strain tested. Microplates were incubated for 18h at 37 °C in ambient air. Then MICs were read visually and, in case of visual reading difficulties, confirmed using a spectrophotometer at a wavelength of 630 nm (BioTek® EL808 Absorbance Microplate Reader). MICs corresponded to the minimum pyrrolic compound concentrations that allowed complete visual growth inhibition of bacteria. Drug-free cultures served as growth controls.
(§5) We used four Staphylococcus aureus strains. Two reference strains were provided by the French reference center for Staphylococcus spp. (Lyon, France), including one methicillin-susceptible (MSSA 476) and one methicillin-resistant (MRSA 252) S. aureus strains. The two remaining S. aureus strains were purchased from the CRBIP (Centre de Ressources Biologiques de l'Institut Pasteur): a vancomycin-intermediate strain (ATCC 106414) and a S. aureus strain (SA-1199B) resistant to fluoroquinolones due to overexpression of the NorA multidrug efflux pump. Coagulase-negative Staphylococcus strains included three reference strains purchased from CRBIP: a methicillin-susceptible S. epidermidis strain (ATCC 12228), a methicillin-resistant S. epidermidis strain (ATCC 49461), and a methicillin-susceptible S. sciuri strain (ATCC 29061). We also used 37 clinical strains belonging to the following coagulase-negative Staphylococcus species: S. arlettae (two strains), S. capitis (nine strains), S. epidermidis (one strain), S. haemolyticus (six strains), S. hominis (eight strains), S. lugdunensis (one strain), S. massiliensis (one strain), S. pettenkoferi (two strains), S. saprophyticus (two strains), S. simulans (one strain), and S. warneri (four strains) . Identification of the clinical strains was first obtained using VITEK® 2 System (Biomérieux) and confirmed by amplification and sequencing of the tuf gene (Reference: Bergeron, M., O. Dauwalder, M. Gouy, A.-M. Freydiere, M. Bes, H. Meugnier, Y. Benito, J. Etienne, G. Lina, F. Vandenesch, and S. Boisset. Species identification of staphylococci by amplification and sequencing of the tuf gene compared to the gap gene and by matrix-assisted laser desorption ionization time-of-flight mass spectrometry, Eur. J. Clin. Microbial. Infect. Dis. 2011, 30, 343-354).
(§6) The activity of pyrrolic compounds 3c, 3e-3j and 3n was first tested against 12 Staphylococcus sp. strains, including 7 reference strains and five clinical strains. The MICs of these compounds against Staphylococcus aureus ATCC 106414 (VISA) and Staphylococcus epidermidis ATCC 12228 are in accordance with those described in Tables I and II.

For assay [5], the system named is Staphylococcus aureus (MSSA476). The description is as above. To be noted: 10^6 CFU/ml, 18h at 37 °C. The procedure: as §2, §3, §4, §5, §6
In assay [6] the test system is Staphylococcus aureus (MRSA 252). The description is as above. Particulars: 10^6 CFU/ml, 18h at 37 °C. As to the method: as §2, §3, §4, §5, §6
For assay [7], the system named is Staphylococcus hominis(CHUG-Shom1). The assay is described as above. Particulars: 10^6 CFU/ml, 18h at 37 °C. The procedure: as §2, §3, §4, §5, §6
Assay [8] deals with Staphylococcus capitis (CHUG-Scapi1). The description is as above. Particulars: 10^6 CFU/ml, 18h at 37 °C. As to the method:
as §2, §3, §4, §5, §6

Assay [9] deals with Staphylococcus sciuri (ATCC 29061). The description is as above. To be noted: Mammaliicoccus sciuri, ATCC29061, 10^6 CFU/ml, 18h at 37 °C. As to the method: as §2, §3, §4, §5, §6
Assay [10] concerns Staphylococcus haemolyticus (CHUG-Shae1). The description is as above. To be noted: 10^6 CFU/ml, 18h at 37 °C. As to the method: as §2, §3, §4, §5, §6
The test system of assay [11] is Staphylococcus aureus (ATCC 106414, VISA). Described as above. To be noted: 10^6 CFU/ml, 18h at 37 °C. The procedure: as §2, §3, §4, §5, §6
The subject of assay [12] is Staphylococcus warneri (CHUG-Swar1). The description is as above. Particulars: 10^6 CFU/ml, 18h at 37 °C. The procedure: as §2, §3, §4, §5, §6
The subject of assay [13] is Staphylococcus pettenkoferi (CHUG-Spet1). Described as above. To be noted: 10^6 CFU/ml, 18h at 37 °C. As to the method:
as §2, §3, §4, §5, §6

For assay [14], the system named is Staphylococcus epidermidis (ATCC 49461). Described as above. To be noted: ATCC49461, 10^6 CFU/ml, 18h at 37 °C. As to the method: as §2, §3, §4, §5, §6
The test system of assay [15] is Staphylococcus aureus ATCC 25923. In words: MIC determination, microdilution method (CLSI M07-A8). Particulars: ATCC25923; Staphylococcus aureus ATCC 25923; 5 x 10^5 CFU/mL; 18 hours incubation; read-out: MIC. As to the method:
The microdilution method recommended by the Clinical and Laboratory Standard Institute [M07-A8, Vol.29, N°2] was used. The activity of pyrrolic compounds was tested against 29 bacterial strains belonging to 17 different species and 12 different genera (Staphylococcus, Streptococcus, Enterococcus, […], Bacillus, Haetttophilus, Escherichia, Klebsiella, Enterobacter, Serratia, Pseudomonas, and Acinetobacter). Bacterial inocula were prepared in Mueller Hinton broth (MH2, bioMérieux, Marcy L'Etoile, France), supplemented with 10% sheep blood for fastidious species (i.e., Streptococcus pneumoniae and Haemophilus influenzae). They were dispensed in 96 well microtiter plates (5 x 10^5 CFU/mL of final inoculum). Pyrrolic compounds were added to the wells as to obtain two-fold serial concentrations (0.25-64 mg/L). Plates were incubated at 37°C, in 5% CO2 enriched atmosphere for fastidious species only. MICs were read after 18 hours incubation of cultures, and corresponded to the minimum pyrrolic compound concentration that allowed complete visual growth inhibition of bacteria. Drug-free cultures served as growth controls. Cultures receiving gentamicine, ciprofloxacine or cefotaxime served as positive controls.
(Dilution methods test growth across graded concentrations, often in twofold steps.)

In brackets after ≈: the same amount, converted by molar mass. Where only a bound is given, the exact number is not on record here.

In general, inhibition refers to how much of the control response was suppressed. Broadly, the MIC is the smallest concentration in the dilution series that meets the test's criterion for growth inhibition. For `CC(=O)c1c(C)[nH]c(C(c2ccc(Cl)cc2)c2[nH]c(C)c(C(C)=O)c2C)c1C` [3c], the inhibition at 10 µM in [1] was determined as 17 ± 11%; in assay [2], 27 ± 7%; in assay [3], 9 ± 1%. Moreover, the MIC in [4] is > 32 µg/mL; in [5], 4 µg/mL (≈ 10.1 µM); in assay [6], 8 µg/mL (≈ 20.2 µM); in assay [7] it was > 32 µg/mL; in assay [8], 8 µg/mL (≈ 20.2 µM); in [9] it was > 32 µg/mL. Moreover, the MIC in [10] was 16 µg/mL (≈ 40.3 µM); in assay [11] it was 4 µg/mL (≈ 10.1 µM); in [12], 8 µg/mL (≈ 20.2 µM); in [13], > 32 µg/mL; in [14], > 32 µg/mL; in assay [15], 4 µg/mL (≈ 10.1 µM).
